Experimental data: PMC5736175, “Nicotinic alpha 7 receptor agonists EVP-6124 and BMS-933043, attenuate scopolamine-induced deficits in visuo-spatial paired associates learning” (PLoS ONE, 2017)
Several values for one entry are separate records, joined by “and”; a condition that tells them apart may be missing. Equal entries are not always repeated. Entries after “also recorded” stand apart in the source; their conditions may differ.

Tests used:
[1] = tested on: scopolamine-treated cynomolgus monkeys; test: Scopolamine-induced impairment of vsPAL task performance, treatment + scopolamine; type: in vivo, cynomolgus monkeys (Macaca Fasicularis)
Method: Doses cited refer to the free base form of the compounds. […] All drugs were administered intramuscularly (i.m.) in a dosing volume of 0.1–0.2 ml/kg.
On days when compound testing occurred, approximately half the cohort received one dose and the remainder another dose of the same compound and therefore dose order was staggered between animals. With the exception of EVP-6124, all other compounds were tested in a single dose response study.
Cohen’s d values of >0.2, >0.5 and >0.8 are described using the conventions of small, medium, and large effects, respectively.

[2] = Plasma pharmacokinetics in satellite animals (LC-MS/MS), 60 min after i.m. dose; settings: for concentration at 60 min: cynomolgus monkey, plasma, intramuscular
Method: For all compounds, plasma pharmacokinetic studies were conducted in a separate cohort of cynomolgus monkeys (N = 2–3 subjects per dose) before beginning vsPAL testing to help guide dose selection. Blood samples were obtained with the animals awake and sitting in a primate chair.
Plasma concentrations of test compounds were determined using LC-MS/MS assays. In brief, 50 μL plasma and sample containing compounds was extracted by protein precipitation method with 150 μL acetonitrile containing an internal standard. A 5 μL sample of supernatant was injected into the LC-MS/MS system. Analytes were separated by reversed phase chromatography and detection of each analyte was achieved through selected reaction monitoring mode of mass spectrometry. Samples were quantified by calculated peak area ratio of analyte and internal standard against a calibration curve.

human nAChR α7 [3] = tested on: human nAChR α7; set-up: method as in PMID 20959364, PMID 22085888; settings: xenopus oocytes expressing human nAChR α7; cited from earlier work
human nAChR α7 [4] = tested on: human nAChR α7; set-up: method as in PMID 20959364; settings: QM7 cells expressing human nAChR α7; cited from earlier work
5-HT3 receptor = settings: cited from earlier work
[5] = RG3487 0.03 mg/kg + Individualized Scopolamine, MEAN of 8 animals
[6] = RG3487 0.03 mg/kg + Individualized Scopolamine, individual animals, 0.03 mg/kg
[7] = RG3487 0.03 mg/kg + scopolamine, MEAN of 8 animals
[8] = RG3487 0.03 mg/kg + scopolamine, individual animals, 0.03 mg/kg
[9] = RG3487 0.1 mg/kg + Individualized Scopolamine, MEAN of 8 animals
[10] = RG3487 0.1 mg/kg + Individualized Scopolamine, individual animals, 0.1 mg/kg
[11] = RG3487 0.1 mg/kg + scopolamine, MEAN of 8 animals
[12] = RG3487 0.1 mg/kg + scopolamine, individual animals, 0.1 mg/kg
[13] = RG3487 0.3 mg/kg + scopolamine, MEAN of 8 animals
[14] = RG3487 0.3 mg/kg + scopolamine, individual animals, 0.3 mg/kg
[15] = RG3487 1.0 mg/kg + scopolamine, MEAN of 8 animals
[16] = RG3487 1.0 mg/kg + scopolamine, individual animals, 1 mg/kg
[17] = all doses of the study, for EVP-6124 study (1)
[18] = compound 0.03 mg/kg i.m. + Scopolamine
[19] = compound 0.10 mg/kg i.m. + Scopolamine
[20] = compound 0.30 mg/kg i.m. + Scopolamine
[21] = compound 1.00 mg/kg i.m. + Scopolamine

Compound: Cl.O=C(N[C@@H]1CN2CCC1CC2)c1n[nH]c2ccccc12 [RG3487, N-[(3S)-1-Azabicyclo[2.2.2]oct-3-yl]-1H-indazole-3-carboxamide HCl]
- Initial Correct, 3 Stimuli [1, 5]: 43.8%
- Initial Correct, 4 Stimuli [1, 5]: 25.0%
- Initial Correct, Overall Mean % Correct [1, 5]: 50.8%
- Initial correct, 2 Stimuli [1, 5]: 83.8%
- Initial Correct, 3 Stimuli [1, 6]: 60.0% and 20.0% and 40.0% and 30.0% and 90.0% and 10.0% and 80.0%
- Initial Correct, 4 Stimuli [1, 6]: 30.0% and 0.0% and 50.0% and 40.0%
- Initial Correct, Overall Mean % Correct [1, 6]: 60.0% and 36.7% and 46.7% and 76.7% and 40.0% and 30.0% and 70.0%
- Initial correct, 2 Stimuli [1, 6]: 90.0% and 70.0% and 60.0% and 100.0% and 80.0%
- Eventual Correct, 4 Stimuli ([1]; RG3487 0.03 mg/kg + scopolamine, MEAN): 59.5%
- % Completion [1, 7]: 73.5%
- Average Response Latency (Avg Rsp Lat) [1, 7]: 2136.0 ms
- Eventual Correct, 2 Stimuli [1, 7]: 98.8%
- Eventual Correct, 3 Stimuli [1, 7]: 83.8%
- Eventual Correct, Overall Mean % Correct [1, 7]: 78.2%
- % Completion [1, 8]: 66.2% and 53.1% and 100.0% and 69.9% and 90.5% and 22.8% and 97.3% and 88.2%
- Average Response Latency (Avg Rsp Lat) [1, 8]: 2657.3 ms and 2531.6 ms and 1590.6 ms and 1325.7 ms and 2502.3 ms and 1742.8 ms and 2670.3 ms and 2067.1 ms
- Eventual Correct, 2 Stimuli [1, 8]: 100.0% and 90.0%
- Eventual Correct, 3 Stimuli [1, 8]: 100.0% and 60.0% and 70.0% and 50.0% and 90.0%
- Eventual Correct, 4 Stimuli [1, 8]: 50.0% and 0.0% and 90.0% and 70.0% and 100.0% and 16.7%
- Eventual Correct, Overall Mean % Correct [1, 8]: 83.3% and 50.0% and 96.7% and 80.0% and 100.0% and 68.9%
- Initial Correct, 3 Stimuli [1, 9]: 47.5%
- Initial Correct, 4 Stimuli [1, 9]: 13.8%
- Initial Correct, Overall Mean % Correct [1, 9]: 50.4%
- Initial correct, 2 Stimuli [1, 9]: 90.0%
- Initial Correct, 3 Stimuli [1, 10]: 70.0% and 10.0% and 60.0% and 50.0% and 80.0% and 40.0% and 30.0%
- Initial Correct, 4 Stimuli [1, 10]: 20.0% and 0.0% and 30.0% and 10.0% and 50.0%
- Initial Correct, Overall Mean % Correct [1, 10]: 63.3% and 30.0% and 46.7% and 56.7% and 43.3%
- Initial correct, 2 Stimuli [1, 10]: 100.0% and 80.0% and 90.0%
- % Completion [1, 11]: 75.6%
- Average Response Latency (Avg Rsp Lat) [1, 11]: 2202.7 ms
- Eventual Correct, 2 Stimuli [1, 11]: 100.0%
- Eventual Correct, 3 Stimuli [1, 11]: 91.3%
- Eventual Correct, 4 Stimuli [1, 11]: 48.1%
- Eventual Correct, Overall Mean % Correct [1, 11]: 79.8%
- Eventual Correct, 2 Stimuli ([1]; RG3487 0.1 mg/kg + scopolamine, individual animals): 100.0%
- % Completion [1, 12]: 58.8% and 65.1% and 100.0% and 88.7% and 67.1% and 35.0% and 91.9% and 98.1%
- Average Response Latency (Avg Rsp Lat) [1, 12]: 2536.1 ms and 2248.5 ms and 1598.6 ms and 1289.8 ms and 2048.9 ms and 2712.3 ms and 2472.3 ms and 2715.2 ms
- Eventual Correct, 3 Stimuli [1, 12]: 100.0% and 80.0% and 70.0%
- Eventual Correct, 4 Stimuli [1, 12]: 50.0% and 16.7% and 80.0% and 70.0% and 40.0% and 11.1% and 100.0%
- Eventual Correct, Overall Mean % Correct [1, 12]: 83.3% and 65.6% and 93.3% and 90.0% and 80.0% and 63.7% and 62.2% and 100.0%
- % Completion [1, 13]: 74.7%
- Average Response Latency (Avg Rsp Lat) [1, 13]: 2047.1 ms
- Initial Correct, 3 Stimuli [1, 13]: 42.5%
- Initial Correct, 4 Stimuli [1, 13]: 20.4%
- Initial Correct, Overall Mean % Correct [1, 13]: 48.9%
- Initial correct, 2 Stimuli [1, 13]: 83.8%
- % Completion [1, 14]: 48.2% and 79.1% and 98.4% and 87.1% and 95.1% and 24.7% and 100.0% and 65.1%
- Average Response Latency (Avg Rsp Lat) [1, 14]: 1983.4 ms and 2543.8 ms and 1430.4 ms and 1376.1 ms and 2172.3 ms and 1933.4 ms and 2432.3 ms and 2505.1 ms
- Initial Correct, 3 Stimuli [1, 14]: 30.0% and 70.0% and 0.0% and 40.0%
- Initial Correct, 4 Stimuli [1, 14]: 0.0% and 12.5% and 30.0% and 10.0% and 60.0% and 20.0%
- Initial Correct, Overall Mean % Correct [1, 14]: 43.3% and 37.5% and 63.3% and 76.7% and 20.0% and 46.7% and 60.0%
- Initial correct, 2 Stimuli [1, 14]: 100.0% and 70.0% and 90.0% and 40.0%
- % Completion [1, 15]: 78.8%
- Average Response Latency (Avg Rsp Lat) [1, 15]: 2200.2 ms
- Eventual Correct, 2 Stimuli [1, 15]: 100.0%
- Eventual Correct, 3 Stimuli [1, 15]: 85.0%
- Eventual Correct, 4 Stimuli [1, 15]: 54.2%
- Eventual Correct, Overall Mean % Correct [1, 15]: 79.7%
- Initial Correct, 3 Stimuli [1, 15]: 48.8%
- Initial Correct, 4 Stimuli [1, 15]: 22.2%
- Initial Correct, Overall Mean % Correct [1, 15]: 49.5%
- Initial correct, 2 Stimuli [1, 15]: 77.5%
- Eventual Correct, 2 Stimuli ([1]; RG3487 1.0 mg/kg + scopolamine, individual animals): 100.0%
- % Completion [1, 16]: 70.4% and 84.7% and 100.0% and 97.1% and 94.2% and 27.7% and 96.4% and 60.3%
- Average Response Latency (Avg Rsp Lat) [1, 16]: 2560.1 ms and 2640.7 ms and 1701.5 ms and 1446.7 ms and 1640.8 ms and 2013.9 ms and 2805.9 ms and 2791.8 ms
- Eventual Correct, 3 Stimuli [1, 16]: 100.0% and 70.0% and 80.0% and 90.0%
- Eventual Correct, 4 Stimuli [1, 16]: 80.0% and 33.3% and 50.0% and 70.0% and 16.7%
- Eventual Correct, Overall Mean % Correct [1, 16]: 93.3% and 77.8% and 73.3% and 83.3% and 90.0% and 62.2% and 71.1% and 86.7%
- Initial Correct, 3 Stimuli [1, 16]: 70.0% and 50.0% and 20.0% and 80.0% and 30.0%
- Initial Correct, 4 Stimuli [1, 16]: 30.0% and 11.1% and 10.0% and 50.0% and 0.0% and 16.7%
- Initial Correct, Overall Mean % Correct [1, 16]: 66.7% and 37.0% and 30.0% and 60.0% and 70.0% and 33.3% and 38.9%
- Initial correct, 2 Stimuli [1, 16]: 100.0% and 50.0% and 60.0% and 80.0% and 70.0%
- Holm-Sidak Post-Hoc, Treatment+Scopolamine differs from Vehicle+Scopolamine: percent correct on initial attempt, 3-stimuli ([1]; all doses of the study): n.s.
- Holm-Sidak Post-Hoc, Treatment+Scopolamine differs from Vehicle+Scopolamine: Choice Response Latency [1, 17]: n.s.
- Holm-Sidak Post-Hoc, Treatment+Scopolamine differs from Vehicle+Scopolamine: Percent Task Completed [1, 17]: n.s.
- Holm-Sidak Post-Hoc, Treatment+Scopolamine differs from Vehicle+Scopolamine: percent correct on initial attempt, 2-stimuli [1, 17]: n.s.
- Holm-Sidak Post-Hoc, Treatment+Scopolamine differs from Vehicle+Scopolamine: percent correct on initial attempt, 4 stimuli [1, 17]: n.s.
- Percent Correct on Initial Attempt (SEM), 2 stimuli [1, 18]: 83.8% (4.6%)
- Percent Correct on Initial Attempt (SEM), 3 stimuli [1, 18]: 43.8% (10.5%)
- Percent Correct on Initial Attempt (SEM), 4 stimuli [1, 18]: 25.0% (7.8%)
- Percent Correct on Initial Attempt (SEM), 2 stimuli [1, 19]: 90.0% (3.3%)
- Percent Correct on Initial Attempt (SEM), 3 stimuli [1, 19]: 47.5% (8.0%)
- Percent Correct on Initial Attempt (SEM), 4 stimuli [1, 19]: 13.8% (6.5%)
- Percent Correct on Initial Attempt (SEM), 2 stimuli [1, 20]: 83.8% (7.1%)
- Percent Correct on Initial Attempt (SEM), 3 stimuli [1, 20]: 42.5% (9.0%)
- Percent Correct on Initial Attempt (SEM), 4 stimuli [1, 20]: 20.4% (7.5%)
- Percent Correct on Initial Attempt (SEM), 2 stimuli [1, 21]: 77.5% (6.2%)
- Percent Correct on Initial Attempt (SEM), 3 stimuli [1, 21]: 48.8% (8.3%)
- Percent Correct on Initial Attempt (SEM), 4 stimuli [1, 21]: 22.2% (5.6%)
- effect on scopolamine-induced impairment of eventual accuracy ([1]; dose range 0.03-1.0 mg/kg i.m.): not efficacious; also recorded: failed to improve eventual accuracy; also recorded: no reversal
- nM total compound in plasma from satellite animals, 60 min ([2]; 0.10 mg/kg i.m., individual subjects): 74.4 nM
- nM total compound in plasma from satellite animals, 60 min ([2]; 0.30 mg/kg i.m., individual subjects): 132.0 nM
- nM total compound in plasma from satellite animals, 60 min ([2]; 1.00 mg/kg i.m., individual subjects): 305.0 nM
- concentration at 60 min ([2]; 0.1 mg/kg, nM total compound in plasma from satellite animals, 60 min, 0.10 mg/kg i.m., individual subjects): 42.9 nM
- concentration at 60 min ([2]; 0.1 mg/kg, nM total compound in plasma from satellite animals, 60 min, 0.10 mg/kg i.m., mean): 58.7 nM
- concentration at 60 min ([2]; 0.3 mg/kg, nM total compound in plasma from satellite animals, 60 min, 0.30 mg/kg i.m., individual subjects): 114 nM
- concentration at 60 min ([2]; 0.3 mg/kg, nM total compound in plasma from satellite animals, 60 min, 0.30 mg/kg i.m., mean): 123 nM
- concentration at 60 min ([2]; 1 mg/kg, nM total compound in plasma from satellite animals, 60 min, 1.00 mg/kg i.m., individual subjects): 595 nM
- concentration at 60 min ([2]; 1 mg/kg, nM total compound in plasma from satellite animals, 60 min, 1.00 mg/kg i.m., mean): 450 nM
- concentration at 60 min ([2]; exposures (predicted and measured), 0.03-1 mg/kg im dose range): 15 to 450 nM
- concentration at 60 min ([2]; mean plasma concentrations, satellite animals 60 min post-administration, 0.1-1.0 mg/kg dose range): 58.7 to 450 nM
- maximal peak current, % of the acetylcholine response (human nAChR α7 [3]): 63%
- maximal peak current relative to acetylcholine (human nAChR α7 [4]): 69%
- net charge relative to acetylcholine (human nAChR α7 [4]): 53%
- 5-HT3 receptor antagonism (5-HT3 receptor): potent 5-HT3 receptor antagonists
